The values that follow are results of earlier work, collected in patent publication US20240050531A1, “A METHOD FOR REVERSING AGING BRAIN FUNCTIONAL DECLINE” (THE CHINESE UNIVERSITY OF HONG KONG, priority 2020, published 2024).

The target in one series is T1, GLP-1R (Rattus norvegicus, UniProt P32301).
T1 construct: host or cells: living rats (8 weeks old), endogenous receptor
T1 sequence (P32301 22-463): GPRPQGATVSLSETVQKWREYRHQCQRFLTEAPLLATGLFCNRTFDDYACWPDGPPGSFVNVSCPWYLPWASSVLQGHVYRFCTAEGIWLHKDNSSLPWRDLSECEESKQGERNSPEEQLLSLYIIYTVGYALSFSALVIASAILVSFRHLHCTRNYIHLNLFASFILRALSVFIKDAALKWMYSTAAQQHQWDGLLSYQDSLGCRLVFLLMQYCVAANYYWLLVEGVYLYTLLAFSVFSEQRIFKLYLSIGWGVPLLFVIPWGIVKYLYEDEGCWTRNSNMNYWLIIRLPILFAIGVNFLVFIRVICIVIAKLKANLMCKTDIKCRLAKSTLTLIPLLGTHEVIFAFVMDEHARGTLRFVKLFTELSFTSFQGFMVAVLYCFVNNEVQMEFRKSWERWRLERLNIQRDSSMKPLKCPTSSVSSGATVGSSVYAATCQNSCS

The conditions of series [1]: intraperitoneal (i.p.) injection.

Read-outs that look alike come from different tables or passages of the source.

For the substance [Ser(2)]exendin(1-9), the “associative and spatial learning” value was “enhance associative and spatial learning” at GLP-1R (intracerebroventricular (i.c.v) administration, 8 weeks old rats); “also active” at GLP-1R (peripheral administration).

In the case of exendin-4, in series [1], the “hippocampus-associated reference memory performance” value is on record as “improves” and the “immobility in the forced swim test” value is “decreases immobility”.
